Data as given in patent publication US20220152031A1, “PYRIDAZINONES AND METHODS OF USE THEREOF” (Goldfinch Bio, Inc., priority 2019, published 2022).
“Also recorded” adds a separate entry of the source.

Key:
PAN-injured rats = assay: Puromycin aminonucleoside (PAN)-induced glomerular injury in rats; type: in vivo, Sprague-Dawley rats; conditions: for albuminuria: PAN model of glomerular injury in rats
Source text: The objective of this study is to evaluate the dose-dependent effects of compound 100 on PAN induced glomerular kidney injury as indexed by albuminuria. Eighty (80), male Sprague-Dawley rats weighing approximately 125-150 g and approximately 5-6 weeks of age were acquired from Charles River. They were fed a standard chow diet (Harlan 8640), housed under standard conditions, and allowed to acclimate for at least 5 days prior to study inception. On D-2, rats were placed into weight-matched treatment groups and were placed, individually housed, into metabolic cages for the balance of the study. A 24 hour baseline (Day 0) urine was collected followed by a baseline blood collection via conscious tail venous puncture. Rats were then administered vehicle or test article. Two (2) hours following administration of vehicle or test agent on Day 0, rats received an administration of (5 mL/kg, s.c.) vehicle (sterile saline) or puromycin aminonucleoside (PAN; challenge agent; 75 mg/kg) dissolved in vehicle. Intermittent (Day 4, 7 and 10) 24 hour urine volumes were determined and samples (4 samples/animal/time point; 0.5 mL/sample) were obtained. Additionally, intermittent (Day 4, 7 and 10) blood samples were collected via conscious tail venous puncture 2 hours±1 minute post-AM dose. Immediately following the last blood collection, rats were anesthetized with isoflurane, tissues harvested, and animals sacrificed. Endpoint kidney weights and indices were obtained. Urine samples were immediately flash-frozen in liquid N2 and stored at −80° C. until analyzed. Whole blood samples collected on K3EDTA were processed appropriately for the production of plasma for PK measurements.

[1] = Drug exposure in human kidney organoid implanted under the rat kidney capsule after oral dosing; type: in vivo; conditions: 10 mg/kg PO QD for 3 consecutive days, necropsy after 3 days
Experimental: Initially a space was created under the kidney capsule with angled fine forceps. A 22G blunt needle was used to further open the space under the kidney capsule. An angled cut was made at the tip of the 18G feeding tube attached to a 1 mL syringe. The 18G feeding tube was pre-wet with APEL2 medium, and one organoid from the dish containing APEL2 with the 18G feeding tube was carefully aspirated, keeping the entire organoid close to the tip of the 18G feeding tube, and not aspirating organoid into the syringe. An 18G feeding tube containing the organoid was inserted into the space created under the kidney capsule, and the organoid was injected towards the back end of the created space. The animal was closed, and then the procedure was repeated on the second kidney. After the second transplant, the animal was closed again and allowed to recover from anesthesia. The next organoid was started to be removed from TW (2+1 spare organoids) upon closing of animal after second kidney capsule transplant.
Compound 100 was administered to animals after transplant orally, once-daily as follows:
After 3 days, necropsy was performed to study distribution of compound 100 in the animal.

AT1R transgenic rats = assay: AT1R transgenic rat model of FSGS; type: in vivo; conditions: oral once daily 3 mg/kg or 10 mg/kg; UniNX and AngII infusion; up to 3 weeks of treatment
Experimental: The AT1R transgenic rat model of FSGS is characterized by podocyte-specific expression of human AT1R. […] See Zhou et al., Science (2017), vol. 358 (6368), 1332-1336. In the present study, pathophysiology in AT1R transgenic rats was accelerated with unilateral nephrectomy (UniNX) and minipump AngII infusion. Compound 100 was dosed orally once daily at 3 mg/kg or 10 mg/kg, and the urine protein creatinine ratio was determined at −1, 0, 1, 2, and 3 weeks of treatment.

Compound | albuminuria (PAN-injured rats) | drug exposure in implanted organoid [1] | urinary albumin excretion (PAN-injured rats; 30 mg/kg BID dosing, at 7 and 10 days) | urinary albumin excretion (PAN-injured rats; 30 mg/kg QD dosing, at 10 days) | urinary albumin excretion (PAN-injured rats; 30 mg/kg once (QD) or twice (BID) daily, following injury with PAN) | efficacy (urine protein creatinine ratio) (AT1R transgenic rats)
NC(=O)c1ncn([C@@H]2O[C@H](CO)[C@@H](O)[C@H]2O)c1O [Mizoribine, mizoribine, reference compound] | efficacious in reducing albuminuria |  |  |  |  | 
O=c1[nH]ncc(N2CCc3c(ncnc3Oc3ccc(F)cc3C(F)(F)F)C2)c1Cl [Compound 100, 4-chloro-5-[4-[4-fluoro-2-(trifluoromethyl)phenoxy]-5H,6H,7H,8H-pyrido[3,4-d]pyrimidin-7-yl]-2,3-dihydropyridazin-3-one] | effective in reducing albuminuria | drug exposure in the implanted organoid; also recorded: drug exposure in an implanted organoid | Significant reductions | Significant reductions | reduced urinary albumin excretion | efficacious
